Measured values taken from PubChem BioAssay AID248 (DTP/NCI, 2004).
Where “and” joins values, the source holds several entries; their conditions need not be identical. Equal entries are not always repeated. Inconclusive results and toxic doses are left out. Cut-off read from the data, not from the text of the source: active = T/C of 150% or more; inactive = T/C below 125%. Square brackets hold non-standard residues; d marks the D form. Peptide text beside a SMILES is read from it. ξ: configuration not given here. ξF = NC(Cc1ccccc1)C(=O)O

Test system: L1210 leukemia ip in BDF1 mice, survival T/C
Assay: NCI In Vivo Anticancer Drug Screen. Data for tumor model L1210 Leukemia (intraperitoneal) in B6D2F1 (BDF1) mice
Conditions: endpoint: mean survival time, higher = longer survival
How it was run: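 Mice bearing the transplanted tumor received compound or vehicle. Survival of the treated group was divided by that of the vehicle-treated control group to give the ratio.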

[1] = dose: 100.0 mg/kg/injection, schedule: Q01DX001 (ip), vehicle: carboxymethylcellulose (CMC)
[2] = dose: 200.0 mg/kg/injection, schedule: Q01DX001 (ip), vehicle: carboxymethylcellulose (CMC)
[3] = dose: 400.0 mg/kg/injection, schedule: Q01DX001 (ip), vehicle: carboxymethylcellulose (CMC)
[4] = dose: 100.0 mg/kg/injection, schedule: Q01DX009 (ip), vehicle: saline with Tween-80
[5] = dose: 200.0 mg/kg/injection, schedule: Q01DX009 (ip), vehicle: saline with Tween-80
[6] = dose: 100.0 mg/kg/injection, schedule: Q01DX009 (ip), vehicle: saline
[7] = dose: 200.0 mg/kg/injection, schedule: Q01DX009 (ip), vehicle: saline
[8] = dose: 25.0 mg/kg/injection, schedule: Q01DX009 (ip), vehicle: saline with Tween-80
[9] = dose: 100.0 mg/kg/injection, schedule: Q04DX002 (ip), vehicle: saline with Tween-80
[10] = dose: 100.0 mg/kg/injection, schedule: Q04DX003 (ip), vehicle: saline with Tween-80
[11] = dose: 200.0 mg/kg/injection, schedule: Q04DX002 (ip), vehicle: saline with Tween-80
[12] = dose: 50.0 mg/kg/injection, schedule: Q01DX009 (ip), vehicle: saline with Tween-80
[13] = dose: 100.0 mg/kg/injection, schedule: Q01DX009 (ip), vehicle: Klucel (hydroxypropylcellulose) (HPC)
[14] = dose: 100.0 mg/kg/injection, schedule: Q04DX003 (ip), vehicle: Klucel (hydroxypropylcellulose) (HPC)
[15] = dose: 200.0 mg/kg/injection, schedule: Q04DX003 (ip), vehicle: Klucel (hydroxypropylcellulose) (HPC)
[16] = dose: 400.0 mg/kg/injection, schedule: Q04DX003 (ip), vehicle: Klucel (hydroxypropylcellulose) (HPC)
[17] = dose: 200.0 mg/kg/injection, schedule: Q04DX003 (ip), vehicle: saline with Tween-80
[18] = dose: 400.0 mg/kg/injection, schedule: Q04DX003 (ip), vehicle: saline with Tween-80

Measured: T/C

O=C1C(c2ccccc2)=C(N2CCCCC2)C(=O)C(c2ccccc2)=C1N1CCCCC1
inactive: [1] 90 % of control | [2] 90 % of control | [3] 94 % of control

NSc1nc2ccccc2s1
inactive: [4] 95 % of control | dose: 100.0 mg/kg/injection, schedule: Q04DX003 (ip), vehicle: saline sonified 105 % of control | [5] 93 % of control | dose: 200.0 mg/kg/injection, schedule: Q04DX003 (ip), vehicle: saline sonified 96 % of control | dose: 400.0 mg/kg/injection, schedule: Q04DX003 (ip), vehicle: saline sonified 107 % of control

CN(C)S(=O)(=O)c1ccc(CC(O)(c2ccccc2)c2ccccc2)cc1
inactive: dose: 88.8 mg/kg/injection, schedule: Q01DX001 (ip), vehicle: carboxymethylcellulose (CMC) 105 % of control and 91 % of control | [1] 98 % of control | dose: 133.0 mg/kg/injection, schedule: Q01DX001 (ip), vehicle: carboxymethylcellulose (CMC) 120 % of control and 91 % of control | [2] 96 % of control and 109 % of control | dose: 300.0 mg/kg/injection, schedule: Q01DX001 (ip), vehicle: carboxymethylcellulose (CMC) 93 % of control and 97 % of control | [3] 104 % of control

NCC(=O)NCC(=O)NC(Cc1ccccc1)C(=O)O (stereo not drawn) (H-Gly-Gly-[ξF]-OH)
inactive: [6] 109 % of control | dose: 100.0 mg/kg/injection, schedule: Q04DX003 (ip), vehicle: saline 110 % of control | [7] 107 % of control | dose: 200.0 mg/kg/injection, schedule: Q04DX003 (ip), vehicle: saline 100 % of control | dose: 400.0 mg/kg/injection, schedule: Q01DX009 (ip), vehicle: saline 101 % of control | dose: 400.0 mg/kg/injection, schedule: Q04DX003 (ip), vehicle: saline 101 % of control

CSc1ccc(NC(=O)Nc2ccc(C(=O)NCC(=O)O)cc2)cc1
inactive: [8] 102 % of control and 92 % of control | dose: 25.0 mg/kg/injection, schedule: Q04DX003 (ip), vehicle: saline with Tween-80 96 % of control | dose: 50.0 mg/kg/injection, schedule: Q04DX003 (ip), vehicle: saline with Tween-80 105 % of control | dose: 100.0 mg/kg/injection, schedule: Q01DX001 (ip), vehicle: saline with Tween-80 97 % of control | [9] 96 % of control and 91 % of control | [10] 110 % of control | [11] 94 % of control and 99 % of control

C=C(CCCC)c1ccccc1
inactive: [12] 102 % of control | [4] 91 % of control | [5] 94 % of control

CSc1cccc(NC(=O)Nc2ccc(Cl)cc2)c1
inactive: [9] 104 % of control | [11] 93 % of control | dose: 400.0 mg/kg/injection, schedule: Q04DX002 (ip), vehicle: saline with Tween-80 89 % of control

COC1(c2ccc(Cl)cc2)OC(=O)C(c2ccccc2)=C1Cc1ccccc1 (configuration not stated)
inactive: dose: 12.5 mg/kg/injection, schedule: Q01DX009 (ip), vehicle: saline with Tween-80 93 % of control | [8] 89 % of control | [12] 100 % of control

c1ccc(C2(c3ccccc3)CC([P+](c3ccccc3)(c3ccccc3)c3ccccc3)=NN2CC[P+](c2ccccc2)(c2ccccc2)c2ccccc2)cc1
inactive: dose: 1.56 mg/kg/injection, schedule: Q01DX001 (ip), vehicle: saline 107 % of control | dose: 3.12 mg/kg/injection, schedule: Q01DX001 (ip), vehicle: saline 91 % of control | dose: 6.25 mg/kg/injection, schedule: Q01DX001 (ip), vehicle: saline 108 % of control and 91 % of control

COc1ccc(S(=O)(=O)NC(=O)NC23CC4CC(CC(C4)C2)C3)cc1
inactive: dose: 50.0 mg/kg/injection, schedule: Q01DX009 (ip), vehicle: Klucel (hydroxypropylcellulose) (HPC) 91 % of control | [13] 98 % of control | [14] 97 % of control | [15] 97 % of control | [16] 94 % of control

CCc1c(/C=C2/OC(=O)NC2=O)[nH]c(=S)[nH]c1=O
inactive: [10] 97 % of control | [17] 96 % of control | [18] 96 % of control

CCOC(=O)c1ccc(Cn2c(C)cc(=O)n(Cc3ccc(C(=O)OCC)cc3)c2=O)cc1
inactive: dose: 100.0 mg/kg/injection, schedule: Q01DX001 (ip), vehicle: Klucel (hydroxypropylcellulose) (HPC) 102 % of control | dose: 200.0 mg/kg/injection, schedule: Q01DX001 (ip), vehicle: Klucel (hydroxypropylcellulose) (HPC) 94 % of control | dose: 400.0 mg/kg/injection, schedule: Q01DX001 (ip), vehicle: Klucel (hydroxypropylcellulose) (HPC) 91 % of control

NC(=O)CC(N)C(N)=O (configuration not stated)
inactive: dose: 100.0 mg/kg/injection, schedule: Q04DX002 (ip), vehicle: saline 98 % of control | dose: 200.0 mg/kg/injection, schedule: Q04DX002 (ip), vehicle: saline 106 % of control | dose: 400.0 mg/kg/injection, schedule: Q04DX002 (ip), vehicle: saline 109 % of control

CC1(C)SC(N=C=Nc2ccccc2)CN1C=O (configuration not stated)
inactive: dose: 75.0 mg/kg/injection, schedule: Q01DX001 (ip), vehicle: other 96 % of control | dose: 150.0 mg/kg/injection, schedule: Q01DX001 (ip), vehicle: other 86 % of control | dose: 300.0 mg/kg/injection, schedule: Q01DX001 (ip), vehicle: other 93 % of control

O=c1[nH]c(Nc2ccccc2)c(-c2ccccc2)c(=O)[nH]1
inactive: dose: 47.5 mg/kg/injection, schedule: Q01DX001 (ip), vehicle: gum acacia 98 % of control | dose: 95.0 mg/kg/injection, schedule: Q01DX001 (ip), vehicle: gum acacia 88 % of control | dose: 190.0 mg/kg/injection, schedule: Q01DX001 (ip), vehicle: gum acacia 114 % of control

CCOc1ccccc1NC(=O)c1cccc(C(=O)Nc2ccccc2OCC)c1
inactive: [13] 92 % of control | [14] 90 % of control | dose: 200.0 mg/kg/injection, schedule: Q01DX009 (ip), vehicle: Klucel (hydroxypropylcellulose) (HPC) 88 % of control | [15] 96 % of control | dose: 400.0 mg/kg/injection, schedule: Q01DX009 (ip), vehicle: Klucel (hydroxypropylcellulose) (HPC) 88 % of control | [16] 90 % of control

Cc1ccc2c(c1)P(O)(=S)c1cc(F)ccc1O2 (configuration not stated)
inactive: dose: 50.0 mg/kg/injection, schedule: Q01DX009 (ip), vehicle: saline 113 % of control | [6] 103 % of control | [7] 110 % of control

Fc1c(F)c(F)c(Oc2c(F)c(F)c(C(F)(F)F)c(F)c2F)c(F)c1F
inactive: [4] 102 % of control | [10] 94 % of control | [5] 98 % of control | [17] 92 % of control | dose: 400.0 mg/kg/injection, schedule: Q01DX009 (ip), vehicle: saline with Tween-80 98 % of control | [18] 92 % of control

Cc1ccc(CNCC(=O)O)cc1
inactive: dose: 50.0 mg/kg/injection, schedule: Q01DX009 (ip), vehicle: water 102 % of control | dose: 100.0 mg/kg/injection, schedule: Q01DX009 (ip), vehicle: water 98 % of control | dose: 100.0 mg/kg/injection, schedule: Q01DX Z (ip), vehicle: saline 96 % of control | dose: 100.0 mg/kg/injection, schedule: Q04DX003 (ip), vehicle: water 95 % of control | dose: 200.0 mg/kg/injection, schedule: Q01DX009 (ip), vehicle: water 95 % of control | dose: 200.0 mg/kg/injection, schedule: Q01DX Z (ip), vehicle: saline 104 % of control | dose: 200.0 mg/kg/injection, schedule: Q04DX003 (ip), vehicle: water 88 % of control

O=C(Nc1ccccc1)C(CCCN1C(=O)c2ccccc2C1=O)N1C(=O)c2ccccc2C1=O (configuration not stated)
inactive: dose: 75.0 mg/kg/injection, schedule: Q01DX001 (ip), vehicle: saline 100 % of control | dose: 150.0 mg/kg/injection, schedule: Q01DX001 (ip), vehicle: saline 104 % of control | dose: 300.0 mg/kg/injection, schedule: Q01DX001 (ip), vehicle: saline 96 % of control

C=CCCCCCCCCC(=O)N/N=C(/C)c1ccc(C)cc1
inactive: dose: 100.0 mg/kg/injection, schedule: Q04DX002 (ip), vehicle: Klucel (hydroxypropylcellulose) (HPC) 103 % of control | dose: 200.0 mg/kg/injection, schedule: Q04DX002 (ip), vehicle: Klucel (hydroxypropylcellulose) (HPC) 118 % of control | dose: 400.0 mg/kg/injection, schedule: Q04DX002 (ip), vehicle: Klucel (hydroxypropylcellulose) (HPC) 92 % of control
